Measured values published in PubChem BioAssay (NCI).
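Grown in 96-well plates, cells were treated for 48 hours with each compound at five concentrations. Insufficient inhibition: endpoint recorded as highest concentration tested. TGI is the concentration that stops growth completely.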

Experiments:
Assay in all cases: DTP human tumour cell line panel, 48 h
786-0 renal = tested on: 786-0 renal
A498 renal = tested on: A498 renal
A549 NSCLC = tested on: A549 NSCLC
ACHN renal = tested on: ACHN renal
BT-549 breast = tested on: BT-549 breast
CAKI-1 renal = tested on: CAKI-1 renal
CCRF-CEM leukemia = tested on: CCRF-CEM leukemia
COLO 205 colon = tested on: COLO 205 colon
DU-145 prostate = tested on: DU-145 prostate
EKVX NSCLC = tested on: EKVX NSCLC
HCC-2998 colon = tested on: HCC-2998 colon
HCT-116 colon = tested on: HCT-116 colon
HCT-15 colon = tested on: HCT-15 colon
HL-60(TB) leukemia = tested on: HL-60(TB) leukemia
HOP-62 NSCLC = tested on: HOP-62 NSCLC
HOP-92 NSCLC = tested on: HOP-92 NSCLC
HS 578T breast = tested on: HS 578T breast
HT29 colon = tested on: HT29 colon
IGROV1 ovarian = tested on: IGROV1 ovarian
K-562 leukemia = tested on: K-562 leukemia
LOX IMVI melanoma = tested on: LOX IMVI melanoma
M14 melanoma = tested on: M14 melanoma
MALME-3M melanoma = tested on: MALME-3M melanoma
MCF7 breast = tested on: MCF7 breast
MDA-MB-231 breast = tested on: MDA-MB-231 breast
MDA-MB-435 = tested on: MDA-MB-435
MDA-N = tested on: MDA-N
NCI-H226 lung = tested on: NCI-H226 lung
NCI-H23 lung = tested on: NCI-H23 lung
NCI-H460 lung = tested on: NCI-H460 lung
NCI-H522 lung = tested on: NCI-H522 lung
NCI/ADR-RES ovarian = tested on: NCI/ADR-RES ovarian
OVCAR-3 ovarian = tested on: OVCAR-3 ovarian
OVCAR-4 ovarian = tested on: OVCAR-4 ovarian
OVCAR-5 ovarian = tested on: OVCAR-5 ovarian
OVCAR-8 ovarian = tested on: OVCAR-8 ovarian
PC-3 prostate = tested on: PC-3 prostate
RXF 393 renal = tested on: RXF 393 renal
SF-268 CNS = tested on: SF-268 CNS
SF-295 CNS = tested on: SF-295 CNS
SF-539 CNS = tested on: SF-539 CNS
SK-MEL-2 melanoma = tested on: SK-MEL-2 melanoma
SK-MEL-28 melanoma = tested on: SK-MEL-28 melanoma
SK-MEL-5 melanoma = tested on: SK-MEL-5 melanoma
SK-OV-3 ovarian = tested on: SK-OV-3 ovarian
SN12C renal = tested on: SN12C renal
SNB-19 CNS = tested on: SNB-19 CNS
SNB-75 CNS = tested on: SNB-75 CNS
SR leukemia = tested on: SR leukemia
SW-620 colon = tested on: SW-620 colon
TK-10 renal = tested on: TK-10 renal
U251 CNS = tested on: U251 CNS
UACC-257 melanoma = tested on: UACC-257 melanoma
UACC-62 melanoma = tested on: UACC-62 melanoma
UO-31 renal = tested on: UO-31 renal
KM12 colon = tested on: KM12 colon
MOLT-4 leukemia = tested on: MOLT-4 leukemia
RPMI-8226 leukemia = tested on: RPMI-8226 leukemia
T-47D breast = tested on: T-47D breast

## CN(C)c1ccc(-c2c(C#N)c(N)[nH]c(=S)c2C#N)cc1
786-0 renal
  TGI: > 100 µM
A498 renal
  TGI: 96.2 µM
A549 NSCLC
  TGI: > 100 µM
ACHN renal
  TGI: > 100 µM
BT-549 breast
  TGI: > 100 µM
CAKI-1 renal
  TGI: > 100 µM
CCRF-CEM leukemia
  TGI: > 100 µM
COLO 205 colon
  TGI: > 100 µM
DU-145 prostate
  TGI: > 100 µM
EKVX NSCLC
  TGI: > 100 µM
HCC-2998 colon
  TGI: > 100 µM
HCT-116 colon
  TGI: > 100 µM
HCT-15 colon
  TGI: > 100 µM
HL-60(TB) leukemia
  TGI: > 100 µM
HOP-62 NSCLC
  TGI: > 100 µM
HOP-92 NSCLC
  TGI: > 100 µM
HS 578T breast
  TGI: 35.7 µM
HT29 colon
  TGI: > 100 µM
IGROV1 ovarian
  TGI: > 100 µM
K-562 leukemia
  TGI: > 100 µM
LOX IMVI melanoma
  TGI: > 100 µM
M14 melanoma
  TGI: > 100 µM
MALME-3M melanoma
  TGI: > 100 µM
MCF7 breast
  TGI: > 100 µM
MDA-MB-231 breast
  TGI: > 100 µM
MDA-MB-435
  TGI: > 100 µM
MDA-N
  TGI: > 100 µM
NCI-H226 lung
  TGI: 92.2 µM
NCI-H23 lung
  TGI: > 100 µM
NCI-H460 lung
  TGI: > 100 µM
NCI-H522 lung
  TGI: > 100 µM
NCI/ADR-RES ovarian
  TGI: > 100 µM
OVCAR-3 ovarian
  TGI: > 100 µM
OVCAR-4 ovarian
  TGI: > 100 µM
OVCAR-5 ovarian
  TGI: > 100 µM
OVCAR-8 ovarian
  TGI: > 100 µM
PC-3 prostate
  TGI: > 100 µM
RXF 393 renal
  TGI: > 100 µM
SF-268 CNS
  TGI: > 100 µM
SF-295 CNS
  TGI: > 100 µM
SF-539 CNS
  TGI: > 100 µM
SK-MEL-2 melanoma
  TGI: > 100 µM
SK-MEL-28 melanoma
  TGI: > 100 µM
SK-MEL-5 melanoma
  TGI: > 100 µM
SK-OV-3 ovarian
  TGI: > 100 µM
SN12C renal
  TGI: > 100 µM
SNB-19 CNS
  TGI: > 100 µM
SNB-75 CNS
  TGI: > 100 µM
SR leukemia
  TGI: > 100 µM
SW-620 colon
  TGI: > 100 µM
TK-10 renal
  TGI: > 100 µM
U251 CNS
  TGI: > 100 µM
UACC-257 melanoma
  TGI: > 100 µM
UACC-62 melanoma
  TGI: > 100 µM
UO-31 renal
  TGI: > 100 µM

## COC(=O)N1C[C@@]2(C=CC3(CC2)OCCO3)c2ccccc21
786-0 renal
  TGI: > 100 µM
A498 renal
  TGI: > 100 µM
A549 NSCLC
  TGI: > 100 µM
ACHN renal
  TGI: > 100 µM
CAKI-1 renal
  TGI: > 100 µM
CCRF-CEM leukemia
  TGI: > 100 µM
COLO 205 colon
  TGI: > 100 µM
DU-145 prostate
  TGI: > 100 µM
EKVX NSCLC
  TGI: > 100 µM
HCC-2998 colon
  TGI: > 100 µM
HCT-116 colon
  TGI: > 100 µM
HCT-15 colon
  TGI: > 100 µM
HL-60(TB) leukemia
  TGI: 58.4 µM
HOP-62 NSCLC
  TGI: > 100 µM
HOP-92 NSCLC
  TGI: > 100 µM
HT29 colon
  TGI: > 100 µM
IGROV1 ovarian
  TGI: > 100 µM
K-562 leukemia
  TGI: > 100 µM
KM12 colon
  TGI: > 100 µM
LOX IMVI melanoma
  TGI: > 100 µM
M14 melanoma
  TGI: > 100 µM
MCF7 breast
  TGI: > 100 µM
MDA-MB-231 breast
  TGI: > 100 µM
MDA-MB-435
  TGI: 74.5 µM
MDA-N
  TGI: > 100 µM
MOLT-4 leukemia
  TGI: > 100 µM
NCI-H23 lung
  TGI: > 100 µM
NCI-H460 lung
  TGI: > 100 µM
NCI/ADR-RES ovarian
  TGI: 95.6 µM
OVCAR-3 ovarian
  TGI: > 100 µM
OVCAR-4 ovarian
  TGI: > 100 µM
OVCAR-5 ovarian
  TGI: > 100 µM
OVCAR-8 ovarian
  TGI: > 100 µM
PC-3 prostate
  TGI: > 100 µM
RPMI-8226 leukemia
  TGI: > 100 µM
SF-295 CNS
  TGI: > 100 µM
SK-MEL-2 melanoma
  TGI: > 100 µM
SK-MEL-28 melanoma
  TGI: > 100 µM
SK-MEL-5 melanoma
  TGI: > 100 µM
SK-OV-3 ovarian
  TGI: > 100 µM
SN12C renal
  TGI: > 100 µM
SNB-19 CNS
  TGI: > 100 µM
SNB-75 CNS
  TGI: > 100 µM
SR leukemia
  TGI: > 100 µM
SW-620 colon
  TGI: > 100 µM
T-47D breast
  TGI: > 100 µM
TK-10 renal
  TGI: > 100 µM
U251 CNS
  TGI: > 100 µM
UACC-257 melanoma
  TGI: > 100 µM
UACC-62 melanoma
  TGI: > 100 µM
UO-31 renal
  TGI: > 100 µM
